Data published in ChEMBL document CHEMBL3608213, “Inhibitors of the Epidermal Growth Factor Receptor (EGFR) May Provide Effective Treatment for Lung Adenocarcinoma” (ACS Med Chem Lett, 2015).

Tests used:
[1] = target: Epidermal growth factor receptor (Homo sapiens, UniProt P00533, E746-A750DEL); experiment: Inhibition of EGFR E746-A750 deletion mutant in human PC9 cells assessed as inhibition of phosphorylation at Y1068 after 2 hrs by sandwich ELISA method; format: cell-based, PC-9
[2] = target: T1, Epidermal growth factor receptor (Homo sapiens, UniProt P00533); experiment: Inhibition of EGFR deletion/T790M mutant in human PC9-DRH cells assessed as inhibition of phosphorylation at Y1068 after 2 hrs by sandwich ELISA method; format: cell-based
Target sequence in this assay (P00533 25-1210 limits assumed, stated change not applied): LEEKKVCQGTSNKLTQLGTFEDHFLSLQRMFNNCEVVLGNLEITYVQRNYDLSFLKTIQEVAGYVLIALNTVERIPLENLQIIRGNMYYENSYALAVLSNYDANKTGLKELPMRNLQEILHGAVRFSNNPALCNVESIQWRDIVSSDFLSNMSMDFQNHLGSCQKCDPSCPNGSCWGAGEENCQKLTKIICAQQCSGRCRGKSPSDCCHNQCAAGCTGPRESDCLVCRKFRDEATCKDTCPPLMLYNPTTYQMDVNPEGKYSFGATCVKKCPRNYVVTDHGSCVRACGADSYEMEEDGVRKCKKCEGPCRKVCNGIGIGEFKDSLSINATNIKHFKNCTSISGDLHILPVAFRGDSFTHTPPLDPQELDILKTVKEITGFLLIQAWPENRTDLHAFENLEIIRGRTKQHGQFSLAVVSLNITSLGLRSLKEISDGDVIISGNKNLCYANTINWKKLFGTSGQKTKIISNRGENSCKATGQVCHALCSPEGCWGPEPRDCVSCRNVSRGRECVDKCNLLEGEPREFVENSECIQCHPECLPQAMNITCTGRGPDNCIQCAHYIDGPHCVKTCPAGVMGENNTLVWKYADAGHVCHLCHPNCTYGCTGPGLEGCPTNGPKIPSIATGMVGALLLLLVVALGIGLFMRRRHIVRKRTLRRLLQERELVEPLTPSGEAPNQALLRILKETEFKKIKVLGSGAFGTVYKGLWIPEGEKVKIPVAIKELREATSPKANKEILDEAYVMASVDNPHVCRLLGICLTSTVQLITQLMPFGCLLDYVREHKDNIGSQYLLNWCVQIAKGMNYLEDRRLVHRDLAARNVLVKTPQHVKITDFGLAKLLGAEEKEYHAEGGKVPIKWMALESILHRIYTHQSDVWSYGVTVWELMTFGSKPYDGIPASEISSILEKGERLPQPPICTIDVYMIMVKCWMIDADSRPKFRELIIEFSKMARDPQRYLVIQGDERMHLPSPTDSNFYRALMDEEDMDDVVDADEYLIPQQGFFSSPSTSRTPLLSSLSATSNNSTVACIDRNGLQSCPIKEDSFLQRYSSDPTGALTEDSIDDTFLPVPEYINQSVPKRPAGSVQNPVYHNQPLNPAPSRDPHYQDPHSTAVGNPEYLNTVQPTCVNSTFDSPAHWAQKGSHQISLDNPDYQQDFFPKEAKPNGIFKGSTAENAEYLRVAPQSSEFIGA

[3] = target: T1, Epidermal growth factor receptor; experiment: Inhibition of wild type EGFR in human A549 cells assessed as inhibition of phosphorylation at Y1068 after 2 hrs by sandwich ELISA method; format: cell-based
Target sequence in this assay (P00533 whole entry): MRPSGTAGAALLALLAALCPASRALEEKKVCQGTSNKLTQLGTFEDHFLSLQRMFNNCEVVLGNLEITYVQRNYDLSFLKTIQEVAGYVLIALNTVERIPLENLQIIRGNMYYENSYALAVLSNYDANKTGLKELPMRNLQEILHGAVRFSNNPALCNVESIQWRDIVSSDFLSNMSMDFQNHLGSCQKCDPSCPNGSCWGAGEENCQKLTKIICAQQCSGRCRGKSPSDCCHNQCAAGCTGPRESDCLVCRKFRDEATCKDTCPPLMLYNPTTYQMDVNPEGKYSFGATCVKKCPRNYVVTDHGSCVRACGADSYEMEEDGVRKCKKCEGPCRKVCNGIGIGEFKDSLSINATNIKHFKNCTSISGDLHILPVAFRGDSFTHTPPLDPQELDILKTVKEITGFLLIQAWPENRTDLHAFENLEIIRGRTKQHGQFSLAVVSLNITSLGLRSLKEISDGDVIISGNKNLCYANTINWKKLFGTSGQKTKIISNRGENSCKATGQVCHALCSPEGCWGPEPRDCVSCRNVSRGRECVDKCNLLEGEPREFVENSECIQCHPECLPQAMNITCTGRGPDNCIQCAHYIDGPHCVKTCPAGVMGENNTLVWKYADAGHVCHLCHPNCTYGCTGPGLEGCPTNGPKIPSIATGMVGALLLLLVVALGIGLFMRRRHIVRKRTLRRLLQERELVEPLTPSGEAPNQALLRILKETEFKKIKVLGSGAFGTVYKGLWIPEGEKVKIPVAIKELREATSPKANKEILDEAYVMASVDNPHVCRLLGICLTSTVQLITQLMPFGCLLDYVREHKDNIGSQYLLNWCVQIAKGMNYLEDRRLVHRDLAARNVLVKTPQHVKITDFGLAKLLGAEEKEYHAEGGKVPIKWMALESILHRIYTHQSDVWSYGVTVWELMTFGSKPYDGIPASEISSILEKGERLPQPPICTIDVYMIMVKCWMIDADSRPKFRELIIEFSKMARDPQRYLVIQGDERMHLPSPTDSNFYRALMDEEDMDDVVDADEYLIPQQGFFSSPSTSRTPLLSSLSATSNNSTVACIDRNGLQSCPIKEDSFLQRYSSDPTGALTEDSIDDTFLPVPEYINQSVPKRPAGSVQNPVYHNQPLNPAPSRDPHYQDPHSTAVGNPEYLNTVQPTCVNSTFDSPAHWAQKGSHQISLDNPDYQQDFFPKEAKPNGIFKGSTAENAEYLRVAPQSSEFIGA

Sequence of Epidermal growth factor receptor (Homo sapiens, UniProt P00533, E746-A750DEL) (P00533 whole entry E746-A750del, looked up): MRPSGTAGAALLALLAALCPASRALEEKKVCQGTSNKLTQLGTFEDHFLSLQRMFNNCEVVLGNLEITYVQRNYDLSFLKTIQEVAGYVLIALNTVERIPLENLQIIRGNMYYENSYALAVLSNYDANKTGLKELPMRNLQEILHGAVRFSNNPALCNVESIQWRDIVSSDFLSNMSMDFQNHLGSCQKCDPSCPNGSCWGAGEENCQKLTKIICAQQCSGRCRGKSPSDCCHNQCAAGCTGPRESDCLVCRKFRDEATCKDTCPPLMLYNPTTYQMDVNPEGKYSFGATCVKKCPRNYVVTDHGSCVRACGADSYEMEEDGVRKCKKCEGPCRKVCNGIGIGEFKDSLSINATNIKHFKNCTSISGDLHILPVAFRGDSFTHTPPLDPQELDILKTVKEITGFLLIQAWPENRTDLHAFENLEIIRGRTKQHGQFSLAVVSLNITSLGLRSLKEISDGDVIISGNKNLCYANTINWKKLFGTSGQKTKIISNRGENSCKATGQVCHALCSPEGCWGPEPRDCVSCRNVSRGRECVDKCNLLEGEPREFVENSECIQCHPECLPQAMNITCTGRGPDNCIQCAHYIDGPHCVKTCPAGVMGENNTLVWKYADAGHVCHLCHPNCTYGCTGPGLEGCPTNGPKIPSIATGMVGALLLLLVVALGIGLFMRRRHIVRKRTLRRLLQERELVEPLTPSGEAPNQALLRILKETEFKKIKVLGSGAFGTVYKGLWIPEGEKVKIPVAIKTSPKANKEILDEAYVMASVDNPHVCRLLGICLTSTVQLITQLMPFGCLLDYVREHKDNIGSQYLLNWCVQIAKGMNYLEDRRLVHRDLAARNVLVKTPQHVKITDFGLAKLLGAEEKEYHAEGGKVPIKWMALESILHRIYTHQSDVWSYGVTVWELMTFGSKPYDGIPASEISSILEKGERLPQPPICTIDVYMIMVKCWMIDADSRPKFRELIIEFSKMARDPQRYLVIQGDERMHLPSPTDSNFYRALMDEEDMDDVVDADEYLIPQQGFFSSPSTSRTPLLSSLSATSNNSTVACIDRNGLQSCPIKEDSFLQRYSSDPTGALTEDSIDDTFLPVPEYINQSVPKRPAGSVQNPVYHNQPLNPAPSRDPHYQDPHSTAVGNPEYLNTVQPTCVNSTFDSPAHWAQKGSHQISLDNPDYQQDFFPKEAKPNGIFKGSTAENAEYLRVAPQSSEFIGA

| IC50 [1] [nM] | IC50 [2] [nM] | IC50 [3] [nM] | SMILES |
| --- | --- | --- | --- |
| 8 | 18 |  | C=CC(=O)N1C[C@@H]2CN(c3nc(Nc4ccc(N5CCN(C)CC5)cc4)c4ncn(C(C)C)c4n3)C[C@@H]2C1 |
| 31 |  |  | C=CC(=O)N[C@H]1CCN(c2nc(Nc3ccc(N4CCN(C)CC4)cc3)c3ncn(CCO)c3n2)C1 |
| 6650 | 2130 | 10000 | C=CC(=O)N[C@@H]1CN(c2nc(Nc3cn(C)nc3C)c3ncn(C(C)C)c3n2)C[C@H]1F |
| 6 | 1 |  | C=CC(=O)N[C@@H]1CN(c2nc(Nc3cn(CC)nc3OC)c3ncn(C)c3n2)C[C@H]1F |
